≈ marks a conversion by molar mass, not a printed value. Like-named read-outs stand apart in the source and are kept apart here.
Columns and labels:
Format in all cases: physicochemical
[1] = Particle size distribution analysis
Description: Moreover, particle size distribution analysis for ticagrelor was performed.

[2] = Bulk/tapped density, compressibility index, Hausner ratio and flowability of drug substance
Description: (§1) Moreover, this low aqueous solubility of ticagrelor leads to an increase of relevance of particle size. Solubility studies in human intestinal fluids, bulk-tapped density, compressibility index, Hausner ratio, flowability studies of drug substance were performed prior to beginning of the development process of pharmaceutical drug product.
In addition, bulk density and tapped density values of ticagrelor was investigated. By using the results obtained, compressibility index, Hausner ratio and flowability of drug substance was designated.

[3] = Solubility study of ticagrelor drug substance in water and pH media
Description: as §1

Question: With `CCCSc1nc(N[C@@H]2C[C@H]2c2ccc(F)c(F)c2)c2nnn([C@@H]3C[C@H](OCCO)[C@@H](O)[C@H]3O)c2n1` [Ticagrelor, (1S,2S,3R,5S)-3-(7-{[(1R,2S)-2-(3,4-Diflourophenyl)cyclopropyl]amino}-5-(propylsulfanyl)-3H-[1,2,3]triazol[4,5-d]pyrimidine-3-yl)-5-(2-hydroxyethoxy)cyclopentane-1,2-diol] as the molecule, how does the D10 [1] read?
Answer: The D10 was 3.0 µm.

Question: What about the D50 [1] of the same molecule?
Answer: The D50 was 6.4 µm.

Question: And the D90 [1]?
Answer: The D90 was 12.5 µm.

Question: And the Bulk density [2]?
Answer: Its Bulk density is 0.157.

Question: And the Compressibility index [2]?
Answer: Its Compressibility index is 39%.

Question: What about the Flowability [2] of the same molecule?
Answer: The Flowability was “Very poor”.

Question: What about the Hausner ratio [2] of the same molecule?
Answer: The Hausner ratio was 1.639.

Question: What about the Tapped density [2] of the same molecule?
Answer: The Tapped density was 0.257.

Question: What about the solubility ([3]; pH 1.2 medium, pH 1.2, simulated gastric fluid, read-out: Average solubility, pH: 1.2) of the same molecule?
Answer: Its solubility is 14 µg/mL (≈ 26.8 µM).

Question: And the solubility ([3]; pH 4.5 medium, pH 4.5, aqueous buffer, read-out: Average solubility, pH: 4.5)?
Answer: Its solubility is 6 µg/mL (≈ 11.5 µM).

Question: What about the solubility ([3]; pH 6.8 medium, pH 6.8, aqueous buffer, read-out: Average solubility, pH: 6.8) of the same molecule?
Answer: Its solubility is 5 µg/mL (≈ 9.57 µM).

Question: And the solubility ([3]; water, read-out: Average solubility, Water)?
Answer: Its solubility is 6 µg/mL (≈ 11.5 µM).

Reference: patent EP4048276B1, “SOLID PHARMACEUTICAL FORMULATIONS COMPRISING TICAGRELOR” (Santa Farma Ilaç Sanayi A.S., priority 2019, dated 2021)
